Source: the OligoGym collection
“And” between values parts separate entries of the source, which are not always exact repeats. Identical values can stand only once. After the bases stand the sugars from the 5' end (letter, count) and the backbone: PS all phosphorothioate, else s phosphorothioate and o phosphodiester by linkage. Methylation of C is not given here. e = 2'-O-(2-methoxyethyl) (MOE); k = constrained ethyl (cEt); d = 2'-deoxy (DNA)

Molecular target: SOD1
Conditions: ASO

Q: Which target mRNA inhibition (HepG2, 3 µM) does the source give for “CAGGGTTTTTATTCACA (sugars e3 k2 d7 k2 e3, PS)” here?
A: The target mRNA inhibition was 17%.

Q: “CAGTCACATTGCCCAAGTCT (sugars e5 d10 e5, PS)” was tested. Which target mRNA inhibition (HepG2, 5 µM) did it give?
A: Its target mRNA inhibition is 40% and 27%.

Q: “CAGTGTTTAATGTTTAT (sugars e2 k2 d8 k2 e3, PS)” was tested. Which target mRNA inhibition (HepG2, 0.1875 µM) did it give?
A: Its target mRNA inhibition is 30%.

Q: And the target mRNA inhibition (HepG2, 0.75 µM)?
A: The target mRNA inhibition was 61%.

Q: What about the target mRNA inhibition (HepG2, 3 µM) of the same sequence?
A: The target mRNA inhibition was 79%.

Q: And the target mRNA inhibition (HepG2, 4 µM)?
A: The target mRNA inhibition was 75%.

Q: What about the target mRNA inhibition (HepG2, 5 µM) of the same sequence?
A: The target mRNA inhibition was 77%.

Q: What about the target mRNA inhibition (HepG2, 12 µM) of the same sequence?
A: Its target mRNA inhibition is 81% and 87%.

Q: Which target mRNA inhibition (HepG2, 5 µM) does the source give for “CAGTTTCTCACTACAGGTAC (sugars e5 d10 e5, PS)” here?
A: Its target mRNA inhibition is 25%.

Q: How did the target mRNA inhibition (HepG2, 5 µM) turn out when “CATAATAAGTGCCATAC (sugars e2 k2 d8 k2 e3, PS)” was run?
A: Its target mRNA inhibition is 32%.

Q: “CATCCAAGGGAATGTTT (sugars e3 k2 d7 k2 e3, PS)” was tested. Which target mRNA inhibition (HepG2, 3 µM) did it give?
A: Its target mRNA inhibition is 16%.

Q: “CATCTGCTTTTTCATGG (sugars e3 k2 d7 k2 e3, PS)” was tested. Which target mRNA inhibition (HepG2, 3 µM) did it give?
A: The target mRNA inhibition was 70%.

Q: How did the target mRNA inhibition (HepG2, 5 µM) turn out when “CATCTGTGATTTAAGTC (sugars e2 k2 d8 k2 e3, PS)” was run?
A: The target mRNA inhibition was 42%.

Q: Which target mRNA inhibition (HepG2, 5 µM) does the source give for “CATCTTTGTCAGCAGTCACA (sugars e5 d10 e5, PS)” here?
A: Its target mRNA inhibition is 34% and 13%.

Q: “CATTACTTTCCTTCTGC (sugars e3 k2 d7 k2 e3, PS)” was tested. Which target mRNA inhibition (HepG2, 3 µM) did it give?
A: Its target mRNA inhibition is 28%.

Q: How did the target mRNA inhibition (HepG2, 3 µM) turn out when “CCAACATGCCTCTCTTC (sugars e3 k2 d7 k2 e3, PS)” was run?
A: The target mRNA inhibition was 0%.

Q: Which target mRNA inhibition (HepG2, 4 µM) does the source give for “CCAAGGGAATGTTTATT (sugars e2 k2 d9 k2 e2, PS)” here?
A: The target mRNA inhibition was 52%.

Q: For “CCAAGTGATCATAAATCAGT (sugars e5 d10 e5, PS)”, which target mRNA inhibition (HepG2, 5 µM) is on record?
A: Its target mRNA inhibition is 39%.

Q: “CCAATTACACCACAAGC (sugars e2 k2 d9 k2 e2, PS)” was tested. Which target mRNA inhibition (HepG2, 0.1875 µM) did it give?
A: Its target mRNA inhibition is 7%.

Q: And the target mRNA inhibition (HepG2, 0.75 µM)?
A: Its target mRNA inhibition is 32%.

Q: And the target mRNA inhibition (HepG2, 3 µM)?
A: Its target mRNA inhibition is 77%.

Q: What about the target mRNA inhibition (HepG2, 4 µM) of the same sequence?
A: The target mRNA inhibition was 73%.

Q: And the target mRNA inhibition (HepG2, 12 µM)?
A: The target mRNA inhibition was 96%.

Q: How did the target mRNA inhibition (HepG2, 4 µM) turn out when “CCAGCACCCCGTCTCCGCGA (sugars e5 d10 e5, PS)” was run?
A: Its target mRNA inhibition is 38%.

Q: “CCATAACTCGCTAGGCCACG (sugars e5 d10 e5, PS)” was tested. Which target mRNA inhibition (HepG2, 4 µM) did it give?
A: The target mRNA inhibition was 22%.

Q: Which target mRNA inhibition (HepG2, 3 µM) does the source give for “CCATACAGGGTTTTTAT (sugars e3 k2 d7 k2 e3, PS)” here?
A: Its target mRNA inhibition is 1%.

Q: How did the target mRNA inhibition (HepG2, 5 µM) turn out when “CCATCTGTGATTTAAGT (sugars e2 k2 d8 k2 e3, PS)” was run?
A: Its target mRNA inhibition is 46%.

Q: With “CCATCTGTGATTTAAGT (sugars e2 k2 d9 k2 e2, PS)” as the sequence, how does the target mRNA inhibition (HepG2, 5 µM) read?
A: Its target mRNA inhibition is 47%.

Q: For “CCATTACTTTCCTTCTG (sugars e3 k2 d7 k2 e3, PS)”, which target mRNA inhibition (HepG2, 3 µM) is on record?
A: Its target mRNA inhibition is 37%.

Q: “CCCACCGTGTTTTCTGGATA (sugars e5 d10 e5, PS)” was tested. Which target mRNA inhibition (HepG2, 5 µM) did it give?
A: The target mRNA inhibition was 46% and 40%.

Q: How did the target mRNA inhibition (HepG2, 3 µM) turn out when “CCCACTCTGGCCCCAAA (sugars e3 k2 d7 k2 e3, PS)” was run?
A: Its target mRNA inhibition is 15%.

Q: “CCCATCTGTGATTTAAG (sugars e2 k2 d9 k2 e2, PS)” was tested. Which target mRNA inhibition (HepG2, 5 µM) did it give?
A: Its target mRNA inhibition is 49%.

Q: What does the source list for “CCGTCGCCCTTCAGCACGCA (sugars e5 d10 e5, linkages s1 o4 s10 o2 s2)”?
A: target mRNA inhibition (A431, 0.062 µM): 12%; target mRNA inhibition (A431, 0.185 µM): 13%; target mRNA inhibition (A431, 0.556 µM): 14%; target mRNA inhibition (A431, 1.667 µM): 4%; target mRNA inhibition (A431, 5 µM): 18%; target mRNA inhibition (A431, 15 µM): 7%; target mRNA inhibition (SH-SY5Y, 0.062 µM): 16%; target mRNA inhibition (SH-SY5Y, 0.185 µM): 5%; target mRNA inhibition (SH-SY5Y, 0.556 µM): 19%; target mRNA inhibition (SH-SY5Y, 1.667 µM): 36%; target mRNA inhibition (SH-SY5Y, 5 µM): 68%; target mRNA inhibition (SH-SY5Y, 15 µM): 80%

Q: For “CGCCATAACTCGCTAGGCCA (sugars e5 d10 e5, PS)”, which target mRNA inhibition (HepG2, 4 µM) is on record?
A: The target mRNA inhibition was 59%.

Q: “CGCCCACTCTGGCCCCA (sugars e3 k2 d7 k2 e3, PS)” was tested. Which target mRNA inhibition (HepG2, 3 µM) did it give?
A: Its target mRNA inhibition is 14%.

Q: How did the target mRNA inhibition (HepG2, 3 µM) turn out when “CGCGACTACTTTATAGG (sugars e3 k2 d7 k2 e3, PS)” was run?
A: The target mRNA inhibition was 11%.

Q: With “CGCTAGGCCACGCCGAGGTC (sugars e5 d10 e5, PS)” as the sequence, how does the target mRNA inhibition (HepG2, 4 µM) read?
A: Its target mRNA inhibition is 52%.

Q: With “CGCTGCAGGAGACTACGACG (sugars e5 d10 e5, PS)” as the sequence, how does the target mRNA inhibition (HepG2, 4 µM) read?
A: Its target mRNA inhibition is 23%.

Q: For “CTACAGCTAGCAGGATA (sugars e2 k2 d9 k2 e2, PS)”, which target mRNA inhibition (HepG2, 0.1875 µM) is on record?
A: Its target mRNA inhibition is 30%.

Q: And the target mRNA inhibition (HepG2, 0.75 µM)?
A: The target mRNA inhibition was 80%.

Q: What about the target mRNA inhibition (HepG2, 3 µM) of the same sequence?
A: The target mRNA inhibition was 93%.

Q: And the target mRNA inhibition (HepG2, 4 µM)?
A: Its target mRNA inhibition is 91%.

Q: And the target mRNA inhibition (HepG2, 12 µM)?
A: Its target mRNA inhibition is 97%.

Q: What does the source list for “CTACAGCTAGCAGGATA (sugars e3 k2 d7 k2 e3, PS)”?
A: target mRNA inhibition (HepG2, 0.1875 µM): 44%; target mRNA inhibition (HepG2, 0.75 µM): 62%; target mRNA inhibition (HepG2, 3 µM): 55% and 80%; target mRNA inhibition (HepG2, 12 µM): 86%

Q: With “CTACAGGTACTTTAAAG (sugars e2 k2 d9 k2 e2, PS)” as the sequence, how does the target mRNA inhibition (HepG2, 5 µM) read?
A: The target mRNA inhibition was 16%.

Q: “CTCACTACAGGTACTTT (sugars e2 k2 d9 k2 e2, PS)” was tested. Which target mRNA inhibition (HepG2, 5 µM) did it give?
A: Its target mRNA inhibition is 54%.

Q: Which results are given for “CTCAGACTACATCCAAG (sugars e2 k2 d9 k2 e2, PS)”?
A: target mRNA inhibition (HepG2, 0.1875 µM): 0%; target mRNA inhibition (HepG2, 0.75 µM): 40%; target mRNA inhibition (HepG2, 3 µM): 78%; target mRNA inhibition (HepG2, 4 µM): 76%; target mRNA inhibition (HepG2, 12 µM): 92%
